No end group written: not given here.
Tests used:
Format in all cases: cell-based
[1] = test system: normal human adult articular cartilage explants; experiment: Type II collagen cleavage by collagenase (COL2-3/4C) in human articular cartilage explant culture; settings: by day 16
Experimental: Human femoral chondylar cartilages were obtained at autopsy within 18 hours of death from adult persons with no known history of arthritis and no macroscopic signs of articular degeneration. None of the persons had diabetes or had received chemotherapy prior to autopsy. Adult bovine articular cartilage was obtained from adults/bovine steers and cows from metacarpalphalangeal joints obtained at the abbatoir immediately after slaughter. All cartilage specimens were removed immediately to the laboratory under sterile conditions.
(§1) The cartilages were prepared as previously described (Dahlberg, L. et al. (2000) supra. In brief, the cartilage samples were washed three times with basal culture medium containing Dulbecco's modified Eagle's medium (DMEM; Gibco BRL, Life Technologies, Grand Island, N.Y.) with 20 mM HEAPS buffer (pH 7.4) (Gibco BRL), 45 mM NaHCO3, 100 units/ml penicillin, 100 μg/ml streptomycin and 150 μg/ml gentamycin sulphate (Medium A). Full-depth cartilage slices from a single area, around 20 mm×20 mm were cut vertical to the articular surface and then into cubes of approximately 2 mm×2 mm (5-7 cubes were randomly obtained and wet weights about 50-70 mg/well determined).
(§2) The cartilage was assigned to 48 well plate (ca 40 mg/well) and kept in Medium A supplemented with 50 μg/ml ascorbic acid, 0.1 mg/bovine serum albumin, 50 μg/ml insulin, 5.0 μg/ml and 5.0 μg/ml sodium DMEM alone at 37° C. in 95% air/5% CO2. The cartilage was precultured for 2 days and medium was changed at day 0. Thereafter medium (as described in pellet cultures) was replaced every four days. Various CNBr fragments and/or synthetic peptides were freshly added from day 0 at each medium change. Thereafter, cartilage explants and conditioned media were harvested and stored at −20° C.
(§3) The cell pellets and cartilage explant cultured for various times were digested for the extraction of collagenase-generated neoepitope COL2-3/4Cshort (Billinghurst, R. C. et al., (1997) supra) and denatured type II collagen epitope COL2-3/4m and total type II collagen (Hollander, A. P. et al. (1994a) supra), as previously described: Briefly, the harvested pellets were incubated overnight with 1.0 mg/ml α-chymotrypsin at 37° C. to cleave and solubilize denatured collagen leaving the above neoepitope and epitope intact. After inhibition of α-chymotrypsin activity with N-tosyl-L-phenelalanine-chloromethyl ketone (Sigma), the samples were centrifuged and the supernatants were removed and boiled for 10 min. The COL2-3/4Cshort epitope (hereafter referred to as COL2-3/4Cshort) generated by cleavage of type II collagen by collagenase (Billinghurst, R. C. et al. (1997) supra) and intrachain epitope (COL2-3/4m) exposed in denatured type II collagen (Hollander, A. P. et al. (1994a) supra) were measured in α-chymotrypsin extracts by immunoassay. The COL2-3/4Cshort epitope is detected in an ELISA assay using a rabbit antibody to the carboxyterminal cleavage neoepitope on the TCA piece generated by primary collagenase cleavage of type II collagen. The release of the COL2-3/4C epitope into media was also measured by immunoassay. Total contents in tissue/cells and media was recorded for COL2-3/^4Cshort epitope. The COL2-3/4m epitope was recorded in cells and tissue where it was concentrated. The remaining residues of pellets and explants were digested overnight with 1.0 mg/ml proteinase K at 56° C. to extract the remaining intact type II collagen and then boiled for 10 min to denature the enzyme. Total type II collagen content in the pellets and explant was determined from the collective amount of COL2-3/4m in both the α-chymotrypsin and proteinase K digests.

[2] = test system: MMP-1; experiment: ELISA for MMP-1 in conditioned medium of human chondrocytes; settings: 48 hours; CB12-II 50 μM, TNF-α 50 ng/ml
Experimental: (§4) First-passaged normal human chondrocytes isolated by the method described above and cultured at high density (2×10^5 cells/cm^2) were trypsinized and resuspended in Medium A containing 1% FCS at a density of 10^6 cells/ml. Then, 200 μl of the cell suspension was each plated onto round-bottomed 96-well culture plate. On the next day after plating, CB12-II at 50 μM, USP at 50 μM, and TNF-α at 50 ng/ml were added to the culture media, and the culture was maintained for 24-48 hours. Conditioned media were collected and subjected to ELISA assay. The ELISA kits (BIOTRAK) for MMP-1 and MMP-13 were purchased from Amersham Pharmacia Biotech (Piscataway, N.J.). Measurement range was 6.25-100 ng/ml for MMP-1 and 0.094-3 ng/ml for MMP-13. Sensitivity for the assay was 1.7 ng/ml for MMP-1 and 0.7 ng/ml for MMP-13.
(§5) Protein levels of MMP-1 and MMP-13 were also tested by incubating isolated human chondrocytes for 48 hours in high density culture (10^6 cells/ml) with CB12-II, negative control peptide USP, or cytokine TNF-α, as discussed above. MMP-1 and MMP-13 secretion into medium from the cells was measured using ELISA (see FIGS. 9A and 9B).

[3] = test system: MMP-13; experiment: ELISA for MMP-13 in conditioned medium of human chondrocytes; settings: 48 hours; CB12-II 50 μM, TNF-α 50 ng/ml
Experimental: as §4, §5

[4] = test system: bovine articular cartilage explant; experiment: Proteoglycan (GAG) content and release in bovine explant culture; settings: subpeptides at 1 and 10 μM
Experimental: The cartilages were prepared as previously described (Dahlberg, L. et al. (2000) supra. In brief, the cartilage samples were washed three times with basal culture medium containing Dulbecco's modified Eagle's medium (DMEM; Gibco BRL, Life Technologies, Grand Island, N.Y.) with 20 mM HEAPS buffer (pH 7.4) (Gibco BRL), 45 mM NaHCO3, 100 units/ml penicillin, 100 μg/ml streptomycin and 150 μg/ml gentamycin sulphate (Medium A). Full-depth cartilage slices from a single area, around 20 mm×20 mm were cut vertical to the articular surface and then into cubes of approximately 2 mm×2 mm (5-7 cubes were randomly obtained and wet weights about 50-70 mg/well determined). The cartilage was assigned to 48 well plate (ca 40 mg/well) and kept in Medium A supplemented with 50 μg/ml ascorbic acid, 0.1 mg/bovine serum albumin, 50 μg/ml insulin, 5.0 μg/ml and 5.0 μg/ml sodium DMEM alone at 37° C. in 95% air/5% CO2. The cartilage was precultured for 2 days and medium was changed at day 0. Thereafter medium (as described in pellet cultures) was replaced every four days. Various CNBr fragments and/or synthetic peptides were freshly added from day 0 at each medium change. Thereafter, cartilage explants and conditioned media were harvested and stored at −20° C. In order to show the specificity of the peptide fragments of one embodiment on degradation of type II collagen as compared with proteoglycan, primarily aggrecan, sulphated glycosaminoglycan (GAG) content was determined in both the α-chymotrypsin and proteinase K digests for total proteoglycan (predominantly aggrecan) content in cell pellets, cartilage explants and also in conditioned media. Measurement of release of proteoglycan into media was tested using dimethylene blue dye binding as previously described (Dahlberg, L. et al. (2000) supra).

[5] = test system: bovine articular cartilage explant; experiment: Collagenase-cleaved type II collagen (COL2-3/4C) in bovine articular cartilage explant culture; settings: 1 and 10 μM, time- and dose-dependent
Experimental: as §1, §2, §3

[6] = test system: ERK1/2; experiment: Western immunoblot for phosphorylated ERK1/2 in human chondrocytes; settings: at 15 min; inhibitors added before peptide
Experimental: To detect activation of MAP kinases (ERK1/2, p38 MAPK, and JNK1/2), first-passaged chondrocytes plated onto 10-cm culture dishes were incubated with CB12-II (SP), USP, TNF-α, native human type II collagen, human fibronectin, and antibodies to α2β1 and α5β1 for 5-60 min. In some experiments, chondrocytes were precultured with U0126 (inhibitor of phosphorylation of MEK1/2, up-stream kinase molecule of ERK1/2) at 1 μM for 1 h, SB203580 (inhibitor of phosphorylation of p38 MAPK) at 1 μM for 1 h, Herbimycin A (tyrosine kinase inhibitor) at 1 μg/ml for overnight, Wortmannin (PI3 kinase inhibitor) at 100 nM for 1 h, and Cytochalasin D (focal adhesion inhibitor) at 3 μM for 30 or 60 min before adding peptides.
After a variable but designated incubation time, chondrocytes were washed twice with ice cold PBS and lysed in RIPA buffer (10 mM Tris/HCl, pH 7.4, 0.1% SDS, 1% NP-40, 0.1% sodium deoxycholate, 150 mM NaCl, 1 mM EDTA) containing freshly added proteinase and phosphatase inhibitors (1 mM PMSF, 10 μg/ml leupeptin, 1 μg/ml aprotinin, 1 mM Na3VO4, 1 mM NaF). Cell lysate was centrifuged and supernatant was collected. Protein concentration was determined using Bradford's method. Equal amounts of protein were separated on 10% SDS-polyacrylamide gels under reducing conditions and were electrotransferred to a nitrocellulose membrane (Bio-Rad). To block nonspecific binding, the membranes were incubated in PBS containing 5% non-fat milk overnight at 4° C. The membranes were then probed with rabbit antibodies against phosphorylated ERK1/2, p38, and JNK1/2 (New England BioLabs). Antibodies were diluted 1:1000 in PBS containing 0.5% non-fat milk and reacted with the membrane for 1 h at room temperature. Blots were washed with PBS containing 0.1% Tween-20 three times, and incubated for 1 h at room temperature with horseradish peroxidase (HRP)-conjugated goat anti-rabbit IgG (New England BioLabs) diluted 1:2000 with PBS-0.1% Tween 20 for ECL system (Amersham). Then, the membranes were washed with PBS-Tween, and the membranes were detected with the addition of a 1:1 dilution of the ECL detection reagents (Amersham) 1 and 2 for 1 min. The solution was removed, and the membranes were wrapped in plastic wrap and exposed to film for various amounts of time.
First-passaged confluent human chondrocytes were treated with CB12-II (SP) (10 μM), USP (10 μM), anti-α2β1and α5β1 antibodies, anti-integrin α2β1 blocking antibody, and IL-1β or TNF-α. Cell lysates were immunoblotted using antibody that detects phosphorylated p-ERK1I/2 or p-MEK. In some experiments, U0126 at 10 μM, a specific inhibitor of an upstream molecule, MEK1/2, that activates ERK1/2, and SB203580 at 10 μM, that inhibits p38 MAPK activity, were added to the culture 1 h before peptides, antibodies, and cytokines. Herbimycin A, cytochalasin D, and wortmannin were also used as inhibitors.

| Molecule | effect of removal of hydroxylation at a single proline residue on activity of CB12-II (SP) [1] | inhibition of phosphorylation of ERK1/2 induced by CB12-II [6] | other results |
| --- | --- | --- | --- |
| GERGPP*GPQGARGFPGTP*GLP*GVK [SP15] | reduced potency |  |  |
| TNF-α |  |  | MMP-1 secretion into medium versus no peptide and negative control peptide (USP) [2]: significantly higher; MMP-13 secretion into medium versus no peptide and negative control peptide (USP) [3]: significantly higher |
| GPRGPPGPPGKPGDDGEAGKPGKSGERGPPG [CB12-I, subpeptide of the CB12 peptide of type II collagen] |  |  | proteoglycan breakdown [4]: no significant effect; induction of total collagenase cleavage of type II collagen by CB12 subpeptides [5]: less activity |
| N#CC(=C(/N)Sc1ccccc1N)/C(C#N)=C(\N)Sc1ccccc1N [Peptide U0126, reference compound] |  | inhibited |  |
| GLPGVKGHRGYPGLDGAKGEAGAPG [CB12-III, subpeptide of the CB12 peptide of type II collagen] |  |  | proteoglycan breakdown [4]: no significant effect; induction of total collagenase cleavage of type II collagen by CB12 subpeptides [5]: less activity |
| C[S+]([O-])c1ccc(-c2nc(-c3ccncc3)c(-c3ccc(F)cc3)[nH]2)cc1 (stereo not shown) [SB203580, reference compound] |  | not |  |
| CO[C@H]1[C@@H](OC)C[C@H](C)[C@@H](OC)C2=CC(=O)C=C(NC(=O)/C(C)=C/C=C\[C@H](OC)[C@@H](OC(N)=O)/C(C)=C/[C@@H]1C)C2=O [Herbimycin A, reference compound] |  | inhibited |  |
| GERGPP*GPQGARGFP*GTP*GLPGVK [SP21] | no effect on activity |  |  |
| GEAGAPGVKGESGSPGQNGSPGPM (not fully specified) [CB12-IV, subpeptide of CB12; used as non-specific / negative control peptide (USP)] |  |  | proteoglycan breakdown [4]: no significant effect; induction of total collagenase cleavage of type II collagen by CB12 subpeptides [5]: less activity |
| C=C1[C@@H](C)[C@H]2[C@H](Cc3ccccc3)NC(=O)[C@]23[C@H](OC(C)=O)/C=C/[C@@](C)(O)C(=O)[C@@H](C)C/C=C/[C@H]3[C@@H]1O [Cytochalasin D, reference compound] |  | inhibited |  |
| GERGPPGPQGARGFP*GTP*GLP*GVK [SP6] | no effect on activity |  |  |
| GERGPP*GPQGARGFP*GTPGLP*GVK [SP18] | reduced potency |  |  |

Source: patent US20040122209A1, “Products for regulating the degradation of collagen and methods for identifying same” (Shriners Hospital For Children, priority 2002, published 2004)
